Test results taken from ChEMBL document CHEMBL5385881, “Design, synthesis, and discovery of Eudistomin Y derivatives as lysosome-targeted antiproliferation agents” (Eur J Med Chem, 2023).
Each block holds one molecule with its values, some of them ahead of it. Calls of active or inactive are those of the source. The rule behind the calls is not given here.

Legend:
[1] = tested on: SGC-7901; assay: Cytotoxicity against human SGC-7901 cells assessed as cell inhibition measured after 72 hrs by MTT assay; type: functional, cell-based; conditions: SGC-7901, 72 h
[2] = tested on: MDA-MB-231; assay: Cytotoxicity against human MDA-MB-231 cells assessed as cell inhibition measured after 72 hrs by MTT assay; type: functional, cell-based; conditions: MDA-MB-231, 72 h
[3] = tested on: LS180; assay: Cytotoxicity against human LS180 cells assessed as cell inhibition measured after 72 hrs by MTT assay; type: functional, cell-based; conditions: LS180, 72 h
[4] = tested on: HepG2; assay: Cytotoxicity against human HepG2 cells assessed as cell inhibition measured after 72 hrs by MTT assay; type: functional, cell-based; conditions: HepG2, 72 h
[5] = tested on: A549; assay: Cytotoxicity against human A549 cells assessed as cell inhibition measured after 72 hrs by MTT assay; type: functional, cell-based; conditions: A549, 72 h
[6] = Drug uptake in human MDA-MB-231 cells assessed as accumulation by measuring lysosome-specific fluorescent signals in presence of excess eudistomin Y1 at 1 uM incubated for 1 hrs by confocal laser-scanning microscopic analysis; type: ADME, cell-based; conditions: mda-mb-231, 1 h
[7] = tested on: MDA-MB-231; assay: Induction of autophagy in human MDA-MB-231 cells assessed as fold increase in LC3I/II protein level at 5 uM measured after 6 hrs by Western blot analysis relative to control; type: functional
[8] = tested on: MDA-MB-231; assay: Induction of cell cycle arrest in human MDA-MB-231 cells assessed as accumulation of cells at S phase at 50 uM incubated for 24 hrs by PI staining based flow cytometric analysis (reference value: 29.80%); type: functional
[9] = tested on: MDA-MB-231; assay: Induction of autophagy in human MDA-MB-231 cells assessed as fold increase in Lamp1 level at 15 uM measured after 6 hrs by Western blot analysis relative to control; type: functional
[10] = Reduction in CDK1 level in human MDA-MB-231 cells assessed as fold change at 10 uM measured after 72 hrs by Western blot analysis relative to control; type: functional
[11] = tested on: MDA-MB-231; assay: Induction of cell cycle arrest in human MDA-MB-231 cells assessed as accumulation of cells at S phase at 20 uM incubated for 24 hrs by PI staining based flow cytometric analysis (reference value: 29.80%); type: functional
[12] = tested on: MDA-MB-231; assay: Induction of cell cycle arrest in human MDA-MB-231 cells assessed as accumulation of cells at G0/G1 phase at 5 uM incubated for 24 hrs by PI staining based flow cytometric analysis (reference value: 62.73%); type: functional
[13] = tested on: MDA-MB-231; assay: Induction of cell cycle arrest in human MDA-MB-231 cells assessed as accumulation of cells at G2/M phase at 50 uM incubated for 24 hrs by PI staining based flow cytometric analysis (reference value: 7.47%); type: functional
[14] = tested on: SGC-7901; assay: Induction of cell cycle arrest in human SGC-7901 cells assessed as accumulation of cells at G0/G1 phase at 20 uM incubated for 24 hrs by PI staining based flow cytometric analysis (reference value: 59.67%); type: functional
[15] = tested on: MDA-MB-231; assay: Antiproliferative activity against human MDA-MB-231 cells assessed as cell viability in presence of 3-MA at 10 to 50 uM measured after 72 hrs by MTT assay; type: functional, cell-based; conditions: dose 10-50 µM
[16] = tested on: SGC-7901; assay: Induction of cell cycle arrest in human SGC-7901 cells assessed as accumulation of cells at S phase at 50 uM incubated for 24 hrs by PI staining based flow cytometric analysis (reference value: 40.15%); type: functional
[17] = tested on: MDA-MB-231; assay: Induction of cell cycle arrest in human MDA-MB-231 cells assessed as accumulation of cells at S phase at 10 uM incubated for 24 hrs by PI staining based flow cytometric analysis (reference value: 29.80%); type: functional
[18] = Reduction in CDK1 level in human MDA-MB-231 cells assessed as fold change in presence of 3-MA at 15 uM measured after 72 hrs by Western blot analysis relative to control; type: functional
[19] = tested on: MDA-MB-231; assay: Induction of cell cycle arrest in human MDA-MB-231 cells assessed as accumulation of cells at G2/M phase at 20 uM incubated for 24 hrs by PI staining based flow cytometric analysis (reference value: 7.47%); type: functional
[20] = tested on: MDA-MB-231; assay: Induction of autophagy in human MDA-MB-231 cells assessed as fold increase in Lamp1 level at 10 uM measured after 6 hrs by Western blot analysis relative to control; type: functional
[21] = tested on: SGC-7901; assay: Induction of cell cycle arrest in human SGC-7901 cells assessed as accumulation of cells at G2/M phase at 20 uM incubated for 24 hrs by PI staining based flow cytometric analysis (reference value: 0.18%); type: functional
[22] = tested on: SGC-7901; assay: Induction of cell cycle arrest in human SGC-7901 cells assessed as accumulation of cells at G2/M phase at 50 uM incubated for 24 hrs by PI staining based flow cytometric analysis (reference value: 0.18%); type: functional
[23] = tested on: SGC-7901; assay: Induction of cell cycle arrest in human SGC-7901 cells assessed as accumulation of cells at G0/G1 phase at 5 uM incubated for 24 hrs by PI staining based flow cytometric analysis (reference value: 59.67%); type: functional
[24] = tested on: SGC-7901; assay: Induction of cell cycle arrest in human SGC-7901 cells assessed as accumulation of cells at S phase at 5 uM incubated for 24 hrs by PI staining based flow cytometric analysis (reference value: 40.15%); type: functional
[25] = tested on: SGC-7901; assay: Induction of cell cycle arrest in human SGC-7901 cells assessed as accumulation of cells at S phase at 20 uM incubated for 24 hrs by PI staining based flow cytometric analysis (reference value: 40.15%); type: functional
[26] = Drug uptake in human MDA-MB-231 cells assessed as accumulation by measuring lysosome-specific fluorescent signals at 2 uM incubated for 1 hrs by confocal laser-scanning microscopic analysis; type: ADME, cell-based; conditions: mda-mb-231, 1 h
[27] = Reduction in CDK1 level in human MDA-MB-231 cells assessed as fold change at 15 uM measured after 72 hrs by Western blot analysis relative to control; type: functional
[28] = Reduction in CDK1 level in human MDA-MB-231 cells assessed as fold change at 5 uM measured after 72 hrs by Western blot analysis relative to control; type: functional
[29] = tested on: MDA-MB-231; assay: Induction of cell cycle arrest in human MDA-MB-231 cells assessed as accumulation of cells at G2/M phase at 10 uM incubated for 24 hrs by PI staining based flow cytometric analysis (reference value: 7.47%); type: functional
[30] = tested on: MDA-MB-231; assay: Induction of cell cycle arrest in human MDA-MB-231 cells assessed as accumulation of cells at G0/G1 phase at 20 uM incubated for 24 hrs by PI staining based flow cytometric analysis (reference value: 62.73%); type: functional
[31] = tested on: SGC-7901; assay: Induction of cell cycle arrest in human SGC-7901 cells assessed as accumulation of cells at S phase at 10 uM incubated for 24 hrs by PI staining based flow cytometric analysis (reference value: 40.15%); type: functional
[32] = tested on: MDA-MB-231; assay: Induction of cell cycle arrest in human MDA-MB-231 cells assessed as accumulation of cells at G2/M phase at 5 uM incubated for 24 hrs by PI staining based flow cytometric analysis (reference value: 7.47%); type: functional
[33] = tested on: SGC-7901; assay: Induction of cell cycle arrest in human SGC-7901 cells assessed as accumulation of cells at G0/G1 phase at 50 uM incubated for 24 hrs by PI staining based flow cytometric analysis (reference value: 59.67%); type: functional
[34] = tested on: MDA-MB-231; assay: Induction of autophagy in human MDA-MB-231 cells assessed as increase in acidic vesicle formation by measuring fluorescence signal from lyso-red Tracker at 10 to 20 uM measured after 24 hrs by Lyso-RedTracker staining based confocal laser-scanning microscopic analysis; type: functional, cell-based; conditions: dose 10-20 µM
[35] = tested on: MDA-MB-231; assay: Induction of autophagy in human MDA-MB-231 cells assessed as fold increase in Lamp1 level at 5 uM measured after 6 hrs by Western blot analysis relative to control; type: functional
[36] = tested on: SGC-7901; assay: Induction of cell cycle arrest in human SGC-7901 cells assessed as accumulation of cells at G2/M phase at 10 uM incubated for 24 hrs by PI staining based flow cytometric analysis (reference value: 0.18%); type: functional
[37] = tested on: SGC-7901; assay: Induction of cell cycle arrest in human SGC-7901 cells assessed as accumulation of cells at G0/G1 phase at 10 uM incubated for 24 hrs by PI staining based flow cytometric analysis (reference value: 59.67%); type: functional
[38] = tested on: MDA-MB-231; assay: Induction of autophagy in human MDA-MB-231 cells assessed as fold increase in LC3I/II protein level at 15 uM measured after 6 hrs by Western blot analysis relative to control; type: functional
[39] = tested on: SGC-7901; assay: Induction of cell cycle arrest in human SGC-7901 cells assessed as accumulation of cells at G2/M phase at 5 uM incubated for 24 hrs by PI staining based flow cytometric analysis (reference value: 0.18%); type: functional
[40] = Drug uptake in human MDA-MB-231 cells assessed as accumulation by measuring fluorescent signals at 1 uM incubated for 1 hrs by confocal laser-scanning microscopic analysis; type: ADME, cell-based; conditions: mda-mb-231, 1 h
[41] = Reduction in Cyclin B1 level in human MDA-MB-231 cells assessed as fold change at 5 uM measured after 72 hrs by Western blot analysis relative to control; type: functional
[42] = Reduction in Cyclin B1 level in human MDA-MB-231 cells assessed as fold change in presence of 3-MA at 15 uM measured after 72 hrs by Western blot analysis relative to control; type: functional
[43] = tested on: MDA-MB-231; assay: Induction of cell cycle arrest in human MDA-MB-231 cells assessed as accumulation of cells at G0/G1 phase at 10 uM incubated for 24 hrs by PI staining based flow cytometric analysis (reference value: 62.73%); type: functional
[44] = Reduction in Cyclin B1 level in human MDA-MB-231 cells assessed as fold change at 15 uM measured after 72 hrs by Western blot analysis relative to control; type: functional
[45] = tested on: MDA-MB-231; assay: Induction of autophagy in human MDA-MB-231 cells assessed as increase in lysosomal membrane permeabilization by measuring red fluorescence in cytoplasm at 10 to 20 uM measured after 24 hrs by acridine orange (AO) staining assay; type: functional, cell-based; conditions: dose 10-20 µM
[46] = tested on: MDA-MB-231; assay: Induction of autophagy in human MDA-MB-231 cells assessed as fold increase in LC3I/II protein level at 10 uM measured after 6 hrs by Western blot analysis relative to control; type: functional
[47] = Reduction in Cyclin B1 level in human MDA-MB-231 cells assessed as fold change at 10 uM measured after 72 hrs by Western blot analysis relative to control; type: functional
[48] = tested on: MDA-MB-231; assay: Induction of cell cycle arrest in human MDA-MB-231 cells assessed as accumulation of cells at G0/G1 phase at 50 uM incubated for 24 hrs by PI staining based flow cytometric analysis (reference value: 62.73%); type: functional
[49] = tested on: MDA-MB-231; assay: Induction of cell cycle arrest in human MDA-MB-231 cells assessed as accumulation of cells at S phase at 5 uM incubated for 24 hrs by PI staining based flow cytometric analysis (reference value: 29.80%); type: functional

SMILES: O=C(c1ccccc1)c1nccc2c1[nH]c1ccccc12
- IC50 [1]: 345 µM
- IC50 [2]: 66.1 µM
- IC50 [3]: 258 µM
- IC50 [4]: 244 µM
- IC50 [5]: 74.3 µM

SMILES: Cc1cccc(Cn2c3ccccc3c3ccnc(C(=O)c4ccc(O)cc4)c32)c1
- IC50 [1]: 27.5 µM
- IC50 [2]: 65.6 µM
- IC50 [3]: 25.5 µM
- IC50 [4]: 38.8 µM
- IC50 [5]: 26.8 µM

- Drug uptake [6]: Not Active
- Drug uptake [26]: Active
- Drug uptake [40]: Active
SMILES: COc1ccc(Cn2c3ccccc3c3ccnc(C(=O)c4ccccc4)c32)cc1
- fold change (FC) [7]: 1.12
- IC50 [1]: 12.1 µM
- Activity [8]: 11.55%
- fold change (FC) [9]: 1.39
- fold change (FC) [10]: 0.52
- Activity [11]: 22.49%
- Activity [12]: 64.23%
- Activity [13]: 75.93%
- Activity [14]: 6.9%
- Activity [15]: inactive
- Activity [16]: 45.27%
- IC50 [2]: 20.5 µM
- Activity [17]: 31.51%
- fold change (FC) [18]: 0.78
- Activity [19]: 48.37%
- fold change (FC) [20]: 1.21
- Activity [21]: 60.49%
- IC50 [3]: 2.9 µM
- Activity [22]: 50.5%
- Activity [23]: 41.36%
- Activity [24]: 40.21%
- Activity [25]: 32.61%
- fold change (FC) [27]: 0.5
- fold change (FC) [28]: 0.78
- Activity [29]: 18.53%
- Activity [30]: 29.13%
- Activity [31]: 35.51%
- Activity [32]: 14.71%
- IC50 [4]: 9.6 µM
- Activity [33]: 4.23%
- Activity [34]: Active
- fold change (FC) [35]: 1.04
- Activity [36]: 56.48%
- Activity [37]: 8%
- fold change (FC) [38]: 1.51
- Activity [39]: 18.43%
- fold change (FC) [41]: 1.01
- fold change (FC) [42]: 0.8
- Activity [43]: 49.96%
- fold change (FC) [44]: 0.66
- Activity [45]: Active
- fold change (FC) [46]: 1.39
- fold change (FC) [47]: 0.98
- IC50 [5]: 14.8 µM
- Activity [48]: 12.51%
- Activity [49]: 21.05%
